Patent US20250090597A1, “AIRWAY BASAL CELL ENGRAFTMENT METHODS” (TRUSTEES OF BOSTON UNIVERSITY, priority 2023, published 2025)

Assays:
[1] = system: tracheal airway epithelial cells; settings: Borthwick et al. 2001; Engler et al. 2020; cited from earlier work
[2] = system: tracheal airway epithelial cells; experiment: Post-polidocanol injury mouse tracheal histological time series; type: in vivo
Source text: Intra-tracheal delivery of polidocanol was employed to ablate tracheal airway epithelial cells (see e.g., FIG. 9A). […] Am J Resp Cell Mol 24, 662-670; Engler et al. (2020). Cell Reports 33, 108553; the contents of which are incorporated herein by reference in their entireties. It is contemplated herein that acute epithelial sloughing can generate a temporarily exposed niche on the airway basement membrane for exogenous cells to land. To determine the time window for BC transplantation post polidocanol-mediated injury, tracheal tissues were analyzed in a time series following injury. […] Therefore, donor cells were transplanted five hours post-injury.
Adult recipient mice (8-16 weeks old) were used for all transplantation studies. Tracheal epithelial injury was induced in isoflurane anesthetized mice by intratracheal delivery of 20 μL of 2% polidocanol using the tongue pull method, followed by recovery prior to cell delivery 5-5.5 hours later. Specifically, the recipient animal was anesthetized with 3% isoflurane until the animal developed exaggerated respiratory movements at rates of 1-1.5 breath/second. Then the mouse was lightly restrained by operator, while a second operator delivered polidocanol solution directly into the posterior oropharynx of the mouse. The nose was gently held to encourage the animal to aspirate through the […], about 2-4 times, or until the liquid was no longer visible. For cell transplants, mice were re-anesthetized and 6×10^6 primary BCs or iBCs suspended in 20 μL of DMEM were intratracheally instilled as above.

CCCCCCCCCCCCOCCOCCOCCOCCOCCOCCOCCOCCOCCO [polidocanol]
time to tracheal epithelial sloughing after polidocanol exposure [1]: within three hours | tracheal epithelium state after polidocanol exposure ([2]; 12 hours after polidocanol exposure): patches of rounded or cuboidal epithelial cells characterized the regenerating epithelium | tracheal epithelial sloughing after polidocanol exposure ([2]; five hours after polidocanol exposure): epithelial sloughing was more complete with sporadic residual individual cells and more denuded basement membrane | tracheal epithelium state after polidocanol exposure ([2]; seven hours after polidocanol exposure): residual cells had flattened to cover the basement membrane | tracheal epithelial sloughing after polidocanol exposure ([2]; three hours after polidocanol exposure, 20 μL of 2% polidocanol intratracheal, H&E): Extensive epithelial sloughing
